The values that follow come from patent US9950983B2, “Tricyclic compounds and process for preparation thereof” (Council of Scientific and Industrial Research, priority 2014, dated 2018).

Assay [1] has as its system Ae. aegypti females mosquitoes. Briefly: Mosquito repellence bioassay (protection period, time until the first bite). It counts as in vivo. Conditions: time until first confirmed bite; for Protection period in hrs @dose 0.25 mg/cm^2: dose 0.25 mg/cm^2 on muslin cloth screen over human volunteer's hand; for Protection period in hrs @dose 0.50 mg/cm^2: dose 0.50 mg/cm^2 on muslin cloth screen over human volunteer's hand. The method, then:
Protocol Adopted for the Mosquito Repellence Bioassay
Mosquito repellence activity was assessed on the basis of protection period (hr) offered by various analogues of Nootkatone against Mosquito bites. The protection period was measured on the basis of the concept “time until the first bite” pioneered by Granette (Comparison of mosquito repellency test under laboratory and field conditions. Granett, P. Proc Ann Meet NJ Mosq Assoc, 1938, vol. 25, 51,). Repellence tests were carried out against 3-5 days old, blood starved but sucrose fed (0.5M solution), Ae. aegypti females mosquitoes, drawn from well-established laboratory colony maintained at 27±1° C. Temperatureand 70±5% Relative humidity. The light intensity was regulated at 300-500 lux for testing against laboratory, colonized Ae. aegypti, a day biting mosquito. Human volunteer's hand covered with polythene disposable gloves was introduced in the cage containing about 200 hungry mosquitoes. Mosquitoes were allowed to bite on the back of the hand through muslin screen stuck over a small window (2 cm×2 cm) cutout in the polythene bag. Various analogues of Nootkatone were loaded on the muslin cloth screen instead of direct skin application so as to avoid the potential risk involved in the evaluation of natural products of unknown mammalian toxicity. All the test solutions were made in Analar grade Acetone The muslin cloth screen was first treated with the analogue taking two doses @0.25 mg/cm^2 and 0.5 mg/cm^2 and the solvent was evaporated before use. Control muslin screen was treated with solvent alone. After introduction of the hand covered with the polythene glove with the treated muslin screen into the mosquito cage, number of mosquito bites received in subsequent 5 minutes were counted. In the event of no bites in the initial 5 minutes exposure, the test hand was exposed repeatedly after every consecutive ½ hr for 5 minutes test till the time a confirmed bite was received. Number of hours before the receipt of a confirmed bite (Techniques for the evaluation of insect repellents. A critical review (Schreck, C. E, Ann Rev Entomol, 1977, vol 22, 101) represented the protection period offered by the test compound. In control rate of mosquito bite was 10-12 bites/min. Above test were repeated with both male and female human volunteers using different mosquito batches. All the tests were carried out at 27±1° C. temperature between 9.00-17.00 hrs.

Assay [2] concerns Formosan subterranean termite (Coptotermes formosanus). As to conditions: Formosan subterranean termites; Zhu et al., J Chem Ecol 2001; cited from earlier work.

SMILES strings stand for the structures. Where only a bound is given, the exact number is not on record here.

On to `C[C@@H]1CC(=O)C=C2C(=O)[C@@H]3[C@@H](C3(C)C)[C@]21C` (racemic) [Recemic nardoaristolone B, (1aS,1bR,2R,6aR)-1,1,1b,2-Tetramethyl-1,1a,1b,2,3,6a-hexahydrocyclopropa[a]indene-4,6-dione], for which, in assay [1], the “Protection period in hrs @dose 0.25 mg/cm^2” value came to 3.30 ± 0.0708 h and the “Protection period in hrs @dose 0.50 mg/cm^2” value came out at 5.63 ± 0.1778 h.
On to `C=C(C)[C@@H]1CCC2=CC(=O)C[C@@H](C)[C@]2(C)C1` (racemic) [Recemic nootkatone, nootkatone, reference compound], for which, in assay [1], the “Protection period in hrs @dose 0.25 mg/cm^2” value is 3.12 ± 0.07 h and the “Protection period in hrs @dose 0.50 mg/cm^2” value stood at 5.06 ± 0.06 h.
Take `C[C@@H]1CC(=O)C=C2C(=O)[C@H]3[C@H](C3(C)C)[C@]21C` [1a, (1aR,1bR,2R,6aS)-1,1,1b,2-Tetramethyl-1,1a,1b,2,3,6a-hexahydro-cyclopropa[a]indene-4,6-dione]: in assay [1], the “Protection period in hrs @dose 0.25 mg/cm^2” value came out at 4.13 ± 0.0626 h and the “Protection period in hrs @dose 0.50 mg/cm^2” value turned out to be 5.35 ± 0.0868 h.
On to `CCOC(=O)[C@H]1[C@@H]2C(=O)C3=CC(=O)C[C@@H](C)[C@]3(C)[C@H]12` [1b, Ethyl(1R,1aS,1bR,2R,6aR)-1b,2-dimethyl-4,6-dioxo-1,1a,1b,2,3,4,6,6a-octahydrocyclopropa[a]indene-1-carboxylate], for which, in assay [1], the “Protection period in hrs @dose 0.25 mg/cm^2” value was found to be 1.23 ± 0.040 h and the “Protection period in hrs @dose 0.50 mg/cm^2” value amounted to 1.40 ± 0.0549 h.
As to `CC1(C)[C@@H]2CC3=CC(=O)CCC3[C@@H]21` (stereo partly drawn) [1c, (1aR,6aR)-1,1-Dimethyl-1a,1b,2,3,6,6a-hexahydrocyclopropa[a]-inden-4(1H)-one], in assay [1], the “Protection period in hrs @dose 0.25 mg/cm^2” value worked out at 3.60 ± 0.0791 h and the “Protection period in hrs @dose 0.50 mg/cm^2” value amounted to 5.30 ± 0.088 h.
For `CC1=C2C[C@@H]3[C@H](C2CCC1=O)C3(C)C` (stereo partly drawn) [1d, (1aR,6aR)-1,1,5-trimethyl-1a,1b,2,3,6,6a hexahydrocyclopropa[a]inden-4(1H)-one], in assay [1], the “Protection period in hrs @dose 0.25 mg/cm^2” value worked out at 5.64 ± 0.1984 h and the “Protection period in hrs @dose 0.50 mg/cm^2” value amounted to 6.29 ± 0.0844 h.
Turning to `C[C@H]1CC(=O)C=C2C[C@@H]3[C@H]([C@@H]21)C3(C)C` [1e, (1aR,1bS,6aR)-1,1,2-Trimethyl-1a,1b,2,3,6,6a-hexahydrocyclo propa[a]inden-4(1H)-one], in assay [1], the “Protection period in hrs @dose 0.25 mg/cm^2” value worked out at 5.22 ± 0.0720 h and the “Protection period in hrs @dose 0.50 mg/cm^2” value came out at 6.46 ± 0.1507 h.
Take `CC[C@H]1CC(=O)C=C2C[C@@H]3[C@H]([C@@H]21)C3(C)C` [1f, (1aR,1bS,6aR)-2-Ethyl-1,1-dimethyl-1a,1b,2,3,6,6a hexahydrocyclo propa[a]inden-4(1H)-one]: in assay [1], the “Protection period in hrs @dose 0.25 mg/cm^2” value was found to be 1.53 ± 0.1223 h and the “Protection period in hrs @dose 0.50 mg/cm^2” value is 3.48 ± 0.1396 h.
The corresponding values for `CCC[C@H]1CC(=O)C=C2C[C@@H]3[C@H]([C@@H]21)C3(C)C` [1g, (1aR,1bS,6aR)-1,1-Dimethyl-2-propyl-1a,1b,2,3,6,6a-hexahydrocyclo propa[a]inden-4(1H)-one] are 1.8 ± 0.1490 h and 1.99 ± 0.1137 h.
On to `CC1(C)CC(=O)C=C2C[C@@H]3[C@H]([C@@H]21)C3(C)C` [1h, (1aR,1bR,6aR)-1,1,2,2-Tetramethyl-1a,1b,2,3,6,6a-hexahydro cyclo propa[a]inden-4(1H)-one], for which, in assay [1], the “Protection period in hrs @dose 0.25 mg/cm^2” value was determined as 2.19 ± 0.0716 h and the “Protection period in hrs @dose 0.50 mg/cm^2” value is 2.38 ± 0.07567 h.
`C=C(C)[C@@H]1CCC2=CC(=O)C[C@@H](C)[C@]2(C)C1` [Natural nootkatone, nootkatone, reference compound]: in assay [1], the “Protection period in hrs @dose 0.25 mg/cm^2” value turned out to be 5.58 ± 0.171 h and the “Protection period in hrs @dose 0.50 mg/cm^2” value was greater than 7 h.
On to `C=C(C)[C@@H]1CCC2=CC(=O)C[C@@H](C)[C@]2(C)C1` [nootkatone], for which the “lowest effective concentration tested” value in assay [2] was 10 micrograms/g substrate.
